Measurements from US20040204590A1, “Ep4 receptor agonist, compositions and methods thereof” (priority 2001, published 2004).

Tests used:
[1] = tested on: EP4 mRNA in bone tissue; assay: EP4 and EP2 mRNA levels in bone tissue of injected rats (Northern blot); type: in vivo, rat; conditions: injected 3-6 mg/Kg
Description: (§1) For mRNA localization experiments, 5-week old Sprague-Dawley rats (Charles River) are euthanized by CO2, their tibiae and calvariae are excised, cleaned of soft tissues and frozen immediately in liquid nitrogen. For EP4 regulation experiments, 6-week old rats are given a single injection of either vehicle (7% ethanol in sterile water) or an anabolic dose of PGE2 (Cayman Chemical, Ann Arbor, Mich.), 3-6 mg/kg in the same vehicle) intraperitoneally. Animals are euthanized at several time points post-injection and their tibiae and calvariae, as well as samples from lung and kidney tissues are frozen in liquid nitrogen.
Total RNA is extracted from the tibial metaphysis or diaphysis and calvaria using a guanidinium isothiocyanate-phenol-chloroform method after pulverizing frozen bone samples by a tissue homogenizer. See P. Chomczynski et al., Single-step method of RNA isolation by acid guanidium thiocyanate-phenol-chloroform extraction., Analyt Biochem, 162, 156-159 (1987), which is incorporated by reference herein in its entirety. RNA samples ([…]) are separated on 0.9% agarose/formaldehyde gels and transferred onto nylon membranes (Boehringer Mannheim, Germany). […]

[2] = tested on: ROS 17/2.8 rat osteosarcoma cells; assay: Effect on intracellular cAMP in ROS 17/2.8 cells; type: cell-based
Description: (§2) RCT-1 and RCT-3 are clonal cell lines immortalized by SV-40 large T antigen from cells released from fetal rat calvair by a cmbination collagenase/hyaluronidase digestion. RCT-1 cells, derived from cells released during the first 10 minutes of digestion (fraction I), are cultured in RPMI 1640 medium (BRL) with 10% fetal bovine serum and 0.4 mg/ml G418 (BRL). These cells differentiate and express osteoblastic features upon retinoic acid treatment. RCT-3 cells, immortalized from osteoblast-enriched fraction […] cells, are cultured in F-12 medium (BRL) with 5% Fetal bovine serum and 0.4 mg/ml G418. TRAB-11 cells are also immortalized by SV40 large T antigen from adult rat tibia and are cultured in RPMI 1640 medium with 10% FBS and 0.4 mg/ml G418. ROS 17/2.8 rat osteosarcoma cells are cultured in F-12 containing 5% FBS. Osteoblast-enriched (fraction III) primary fetal rat calvaria cells are obtained by collagenase/hyaluronidase digestion of calvariae of 19 day-old rat fetuses. See Rodan et al., Growth stimulation of rat calvaria osteoblastic cells by acidic FGF, Endocrinology, 121, 1919-1923 (1987), which is incorporated by reference herein in its entirety. Cells are released during 30-50 minutes digestion (fraction III) and are cultured in F-12 medium containing 5% FBS. […]

[3] = tested on: RCT-3 cells; assay: Effect on intracellular cAMP in RCT-3 cells; type: cell-based, rat
Description: as §2

[4] = tested on: TRAB-11 cells; assay: Effect on intracellular cAMP in TRAB-11 cells; type: cell-based, rat
Description: as §2

[5] = tested on: EP4 expression in bone marrow cells; assay: Localization of EP4 mRNA in bone tissue by in situ hybridization; type: in vivo, rat; conditions: rats, single anabolic dose
Description: as §1
Frozen tibiae are sectioned coronally at […] thickness and sections are mounted on charged slides (Probe On Plus, Fisher Scientific, Springfield, N.J.) and are kept at −70° C. until hybridization. cRNA probes are labeled with ^35S-UPgS (ICN, Costa Mesa, Calif.) using a Riboprobe II kit (Promega Madison, Wis.). Hybridization is performed overnight at 50° C. See M. Weinreb et al., Different pattern of alkaline phosphatase, osteopontin and osteocalcin expression in developing rat bone visualized by in-situ hybridization, J. Bone Miner Res., 5, 831-842 (1990) and D. Shinar et al., Expression of alphav and beta3 integrin subunits in rat osteoclasts in situ, J. Bone Miner. Res., 8, 403-414 (1993), which are both incorporated by reference herein in their entirety. […]

[6] = tested on: RCT-3 cells; assay: EP4 mRNA expression in RCT-3 cells (Northern blot); type: cell-based, rat
Description: as §2

[7] = tested on: RP-1 periosteal cells; assay: EP4 and EP2 mRNA expression in RP-1 periosteal cells (Northern blot); type: cell-based, rat; conditions: RP-1 cells
Description: RP-1 periosteal cells are spontaneously immortalized from primary cultures of periosteal cells from tibae of 4-week old Sprague-Dawley rats and are cultured in DMEM (BRL, Gaithersburg, Md.) with 10% fetal bovine serum (JRH Biosciences, Lenexa, Kans.).
Total RNA is extracted from the tibial metaphysis or diaphysis and calvaria using a guanidinium isothiocyanate-phenol-chloroform method after pulverizing frozen bone samples by a tissue homogenizer. See P. Chomczynski et al., Single-step method of RNA isolation by acid guanidium thiocyanate-phenol-chloroform extraction., Analyt Biochem, 162, 156-159 (1987), which is incorporated by reference herein in its entirety. RNA samples ([…]) are separated on 0.9% agarose/formaldehyde gels and transferred onto nylon membranes (Boehringer Mannheim, Germany). Membranes are prehybridized in Hybrisol I (Oncor, Gaithersburg, Md.) and 0.5 mg/ml sonicated salmon sperm DNA (Boehringer) at 42° C. for 3 hours and are hybridized at 420C with rat EP2 and mouse EP4 cDNA probes labeled with [^32P]-dCTP (Amersham, Buckinghamshire, UK) by random priming using the rediprime kit (Amersham). After hybridization, membranes are washed 4 times in 2×SSC+0.1% SDS at room temperature for a total of 1 hour and once with 0.2×SSC+0.1% SDS at 550C for 1 hour and then exposed to Kodak XAR 2 film at −70° C. using intensifying screens. […]

SMILES: CCCCC[C@H](O)/C=C/[C@H]1[C@H](O)CC(=O)[C@@H]1C/C=C\CCCC(=O)O [PGE2]
- EP4 mRNA levels in the tibial diaphysis ([1]; five-week-old male rats): rapidly increased
- EP2 mRNA in bone tissue ([1]; rats): does not induce
- effect on intracellular cAMP [2]: no effect
- effect on intracellular cAMP [3]: markedly induced
- effect on intracellular cAMP [4]: markedly induced
- expression of EP4 in bone marrow cells [5]: increased
- EP4 mRNA levels [6]: no effect
- EP4 mRNA levels ([7]; 10^−6 M): rapidly increases
- EP2 mRNA expression ([7]; before or after treatment): not expressed
